One may read the IC50 as the midpoint of a concentration-inhibition curve. A word on the Ki: it is a measure of affinity in units of concentration, obtained from inhibition or displacement. A lower Ki goes with tighter binding. As a reminder, the EC50 is the midpoint of the concentration-response curve.

The values that follow come from PMC10253817, “Design, Pharmacological Characterization, and Molecular Docking of Minimalist Peptidomimetic Antagonists of α4β1 Integrin” (International Journal of Molecular Sciences, 2023).

Each structure is given as a SMILES string.

One test has as its system ERK1/2. Kind of test: Western blot, FN-induced ERK1/2 phosphorylation in Jurkat E6.1 cells. The class given is cell-based. As to conditions: Jurkat E6.1 cells pre-treated with 10^−7, 10^−8, 10^−9 M, then FN (10 µg/mL) 30 min. The protocol: (§1) To this purpose, Jurkat E6.1 cells were pre-treated with different concentrations (10^−7, 10^−8, 10^−9 M) of the compounds and then exposed to FN (10 µg/mL) for 30 min. […] In addition, the effects observed on intracellular signaling were concentration-dependent, except for compound 13 on AKT activation.
(§2) Western blot analysis was performed as previously described, with the following modifications. […] For integrin antagonists, JurkatE6.1 cells were subsequently incubated with FN (10 μg/mL) at 37 °C for 30 min. At the end of the incubation period, Jurkat E6.1 cells were lysed on ice using T-PER® (Tissue Protein Extraction Reagent, Life Technologies Italia, Milan, Italy), supplemented with a phosphatase inhibitor cocktail. Protein extracts were quantified using a BCA Protein Assay (Pierce, Rockford, IL, USA). The proteins from the cytoplasmatic extract were denatured at 95 °C for 3 min, then equal amounts of protein samples (30–50 μg) were loaded and separated via 12% SDS-PAGE. Proteins were transferred onto a nitrocellulose membrane (Biorad, Hercules, CA, USA), which was blocked with 5% nonfat milk in a Tris-buffered saline (10 mM Tris-HCl, pH 8, containing 150 mM NaCl) containing 0.1% Tween 20 for 1 h at room temperature. Membranes were stained overnight at 4 °C with anti-actin antibody (1:5000, Merck Life Science, Milan, Italy) or with anti-phospho-ERK1/2, anti-total ERK1/2, anti-phospho-AKT, anti-total-AKT, or anti-phospho-JNK antibodies (1:1000; Cell Signaling Technology, Danvers, MA, USA). The membranes were incubated with anti-rabbit peroxidase-conjugated secondary antibodies at a dilution of 1:8000. Blots were developed with a SuperSignal West Pico chemiluminescent substrate. Protocols for digital image acquisition and analysis have previously been described.
On the technique in general: In western blotting, separated proteins are transferred to a membrane and probed.

In test [1] the target is T1, α4β1 integrin (Homo sapiens, UniProt P05556+P13612).
T1 construct: Jurkat E6.1 cell line, which endogenously expresses α4β1 integrin; host or cells: Jurkat E6.1
T1 sequence (P13612 34-1032): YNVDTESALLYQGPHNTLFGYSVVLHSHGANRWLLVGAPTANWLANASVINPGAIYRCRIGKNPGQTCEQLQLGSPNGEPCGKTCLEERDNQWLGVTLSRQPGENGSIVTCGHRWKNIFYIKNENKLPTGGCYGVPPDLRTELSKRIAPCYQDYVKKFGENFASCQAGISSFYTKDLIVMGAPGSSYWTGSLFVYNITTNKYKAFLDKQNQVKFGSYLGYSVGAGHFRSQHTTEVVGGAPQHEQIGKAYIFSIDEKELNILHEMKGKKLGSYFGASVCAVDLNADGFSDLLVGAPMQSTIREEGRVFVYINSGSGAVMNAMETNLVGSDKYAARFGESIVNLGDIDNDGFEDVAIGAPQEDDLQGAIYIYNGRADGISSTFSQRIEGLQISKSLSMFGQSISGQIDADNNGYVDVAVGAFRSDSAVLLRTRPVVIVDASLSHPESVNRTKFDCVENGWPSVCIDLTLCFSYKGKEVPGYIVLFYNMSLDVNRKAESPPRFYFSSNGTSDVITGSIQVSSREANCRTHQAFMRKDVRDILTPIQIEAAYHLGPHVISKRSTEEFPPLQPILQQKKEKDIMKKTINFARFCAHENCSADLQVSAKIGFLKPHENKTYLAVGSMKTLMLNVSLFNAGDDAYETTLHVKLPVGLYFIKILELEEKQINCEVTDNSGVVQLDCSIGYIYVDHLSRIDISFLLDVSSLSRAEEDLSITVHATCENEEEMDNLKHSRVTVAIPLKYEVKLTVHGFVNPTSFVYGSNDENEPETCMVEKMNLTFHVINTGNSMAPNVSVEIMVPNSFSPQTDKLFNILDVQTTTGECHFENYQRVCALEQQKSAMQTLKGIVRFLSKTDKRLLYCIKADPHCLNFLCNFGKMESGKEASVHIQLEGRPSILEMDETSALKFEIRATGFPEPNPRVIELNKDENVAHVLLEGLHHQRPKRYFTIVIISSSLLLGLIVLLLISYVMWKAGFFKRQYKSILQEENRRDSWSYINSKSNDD
T1 sequence (P05556 21-798): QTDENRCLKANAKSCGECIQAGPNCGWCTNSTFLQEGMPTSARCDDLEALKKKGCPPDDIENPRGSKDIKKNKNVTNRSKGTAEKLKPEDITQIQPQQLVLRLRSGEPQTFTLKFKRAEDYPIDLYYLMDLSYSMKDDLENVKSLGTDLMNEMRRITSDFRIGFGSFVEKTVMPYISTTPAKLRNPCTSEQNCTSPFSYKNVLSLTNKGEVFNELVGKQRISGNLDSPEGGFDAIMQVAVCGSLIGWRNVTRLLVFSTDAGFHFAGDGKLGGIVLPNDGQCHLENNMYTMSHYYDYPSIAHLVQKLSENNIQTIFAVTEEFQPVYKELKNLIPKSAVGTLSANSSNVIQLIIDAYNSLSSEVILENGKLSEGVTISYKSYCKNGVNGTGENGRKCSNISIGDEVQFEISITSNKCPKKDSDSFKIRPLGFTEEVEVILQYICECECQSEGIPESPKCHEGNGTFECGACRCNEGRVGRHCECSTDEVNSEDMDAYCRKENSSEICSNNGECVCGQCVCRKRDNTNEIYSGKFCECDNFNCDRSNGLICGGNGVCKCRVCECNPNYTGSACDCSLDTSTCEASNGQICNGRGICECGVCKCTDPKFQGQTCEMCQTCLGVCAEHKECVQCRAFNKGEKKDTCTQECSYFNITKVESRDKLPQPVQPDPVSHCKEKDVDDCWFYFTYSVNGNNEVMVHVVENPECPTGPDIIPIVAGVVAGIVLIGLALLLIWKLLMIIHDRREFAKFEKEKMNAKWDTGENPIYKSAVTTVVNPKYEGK
Kind of test: α4β1 integrin-mediated Jurkat cell adhesion to VCAM-1. To be noted: Jurkat cell adhesion to VCAM-1 (2 μg/mL); antag. = reduced cell adhesion; mean ± SD. The test is classed as cell-based. The protocol:
(§3) To this purpose, the ability of the best peptidomimetics to modulate cell adhesion mediated by integrins other than α4β1 was evaluated in HL60 cells, mainly expressing the leukocyte integrin αMβ2, and on K562 cells, mainly expressing α5β1, which shares a β1 subunit with the heterodimer α4β1. […] In contrast, 13 was a moderate promoter of cell adhesion mediated by αMβ2 integrin, behaving as an agonist. Regarding α5β1 integrin, none of the peptidomimetics employed were able to modulate K562 cell adhesion, thus being shown to be completely ineffective toward α5β1 integrin. The reference compound DS-70 was ineffective toward both αMβ2 and α5β1 integrins under the same experimental conditions (Table 3).
(§4) The assays were performed as previously described. Briefly, regarding adhesion assays on Jurkat E6.1 or HL-60 cells, black 96-well plates (Corning Costar) were coated overnight at 4 °C with FN or Fg (10 μg/mL) or VCAM-1 (2 μg/mL) in order to investigate α4β1 integrin-mediated cell adhesion. To avoid any kind of unspecific binding, plates were incubated with 100 μL/well of blocking solution (1% BSA in HBSS) for 30 min at 37 °C. Cells were counted, stained with the CellTracker green CMFDA (12.5 μM, 30 min at 37 °C, Life Technologies Italia, Milan, Italy) and after three washes, were preincubated with increasing concentrations of new compounds (10^−10–10^−4 M) or with the vehicle (methanol) for 30 min at 37 °C.
(§5) Then, cells were plated (500,000/well) on coated wells and incubated for 30 min at 37 °C. Afterwards nonadherent cells were removed via washing with a blocking solution, and the remaining adhered cells were lysed with 0.5% Triton X-100 in PBS (30 min at 4 °C). Green fluorescence was measured (Ex485 nm/Em535 nm) using an EnSpire Multimode Plate Reader (PerkinElmer, Waltham, MA, USA).
(§6) In both types of adhesion assay, the number of adherent cells was determined via comparison with a standard curve made in the same plate. Experiments were carried out in quadruplicate and repeated at least three times. Data analysis and EC50 or IC50 values were calculated using GraphPad Prism 9.5.1 (GraphPad Software, San Diego, CA, USA).

For the next test, the system named is JNK. Kind of test: Western blot, FN-induced JNK phosphorylation in Jurkat E6.1 cells. As to conditions: Jurkat E6.1 cells pre-treated with 10^−7, 10^−8, 10^−9 M, then FN (10 µg/mL) 30 min. The test is classed as cell-based. The procedure:
as §1, §2

In another test the target is T2, αMβ2 integrin (Homo sapiens, UniProt P05107+P11215).
T2 construct: HL60 cells, mainly expressing the leukocyte integrin αMβ2; host or cells: HL60 (PMA-treated)
T2 sequence (P05107 23-769, other chains not shown): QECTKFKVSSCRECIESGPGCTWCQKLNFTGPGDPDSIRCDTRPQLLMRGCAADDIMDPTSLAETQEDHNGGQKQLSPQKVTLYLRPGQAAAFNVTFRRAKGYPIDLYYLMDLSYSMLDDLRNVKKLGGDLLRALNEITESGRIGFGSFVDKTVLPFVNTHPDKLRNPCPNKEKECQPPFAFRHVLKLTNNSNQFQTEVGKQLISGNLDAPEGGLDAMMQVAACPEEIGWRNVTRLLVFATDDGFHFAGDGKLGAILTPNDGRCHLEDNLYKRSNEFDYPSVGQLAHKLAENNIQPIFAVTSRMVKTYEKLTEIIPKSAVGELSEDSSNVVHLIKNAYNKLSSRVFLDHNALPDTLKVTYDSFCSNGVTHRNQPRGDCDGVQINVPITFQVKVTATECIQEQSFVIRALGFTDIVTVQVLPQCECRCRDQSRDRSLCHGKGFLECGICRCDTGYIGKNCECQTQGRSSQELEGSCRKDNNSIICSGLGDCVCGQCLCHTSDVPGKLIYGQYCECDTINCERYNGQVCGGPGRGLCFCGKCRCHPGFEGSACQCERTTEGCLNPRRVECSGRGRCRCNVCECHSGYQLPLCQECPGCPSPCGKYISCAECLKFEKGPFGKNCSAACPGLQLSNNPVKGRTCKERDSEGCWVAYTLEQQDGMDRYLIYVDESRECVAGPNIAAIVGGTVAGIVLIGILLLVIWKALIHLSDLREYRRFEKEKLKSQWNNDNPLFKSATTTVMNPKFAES
Kind of test: αMβ2 integrin-mediated HL60 cell adhesion to Fg. The test is classed as cell-based. To be noted: HL60 cell adhesion to Fg (10 μg/mL), mean ± SD; for IC50: antagonists. The protocol: as §3, §4, §5, §6
Cell culture. Jurkat E6.1 (expressing both α4β1 and αLβ2 integrin), K562 (expressing α5β1 integrin) and HL60 (expressing α Mβ2 integrin) cell lines were purchased from ATCC (Rockville, MD, USA); these cells were routinely cultured in RPMI-1640 (Life Technologies) supplemented with 1% glutamine and 10% fetal bovine serum (FBS). Cells were grown at 37 °C under 5% CO 2 humidified atmosphere. […]

The target in test [2] is T1, α4β1 integrin. Kind of test: LDV-FITC competitive binding on intact Jurkat E6.1 cells. To be noted: intact Jurkat E6.1 cells vs. LDV-FITC; mean ± SD. The protocol: The assays were performed as previously described with the following modifications. Jurkat E6.1 cells were resuspended (50,000 cells/sample) in 0.1% BSA in a HEPES buffer (NaCl 110 mM; KCl 10 mM; Glucose 10 mM; MgCl2 1 mM; CaCl2 1.5 mM; HEPES 30 mM; pH 7.4) and pre-incubated with different concentrations (10^−11–10^−5 M) of compounds for 20–30 min at RT. Then, LDV-FITC (5 µM) was added to the cells, and they were incubated in the dark for an additional 30 min at RT. At the end of the incubation with LDV-FITC, cells were washed with 0.1% BSA in a HEPES buffer. The FITC fluorescence intensity was measured using an EnSpire Multimode Plate Reader (PerkinElmer, Waltham, MA, USA). The data were plotted as LDV-FITC specific bindings versus the concentration of the competitor, and the data were fitted to a one-site competition equation; the equilibrium dissociation constant Ki was calculated from the IC50 using the Cheng–Prusoff equation.

The test system of another test is AKT. Kind of test: Western blot, FN-induced AKT phosphorylation in Jurkat E6.1 cells. The test is classed as cell-based. To be noted: Jurkat E6.1 cells pre-treated with 10^−7, 10^−8, 10^−9 M, then FN (10 µg/mL) 30 min. The protocol: as §1, §2

As for `CC(=O)N[C@@H](CNC(=O)Cc1ccc(NC(=O)Nc2ccccc2C)cc1)C(=O)NCC(=O)O` [compound 3], the “FN-induced ERK1/2 phosphorylation” value in the test on ERK1/2 is “significantly prevented”. For the same compound, the values for the IC50 against α4β1 integrin [1] and on αMβ2 integrin were 0.975 µM and 0.076 µM, respectively. Further, the “FN-induced JNK phosphorylation” value in the test with JNK is given as “did not counteract”. The affinity at α4β1 integrin [2], expressed as Ki, was 0.0013 ± 0.0007 µM. The “FN-induced AKT phosphorylation” value in the test on AKT is on record as “significantly prevented”.
For `CCCNC(=O)[C@@H](CC(=O)NCC(=O)O)NC(=O)Cc1ccc(NC(=O)Nc2ccccc2C)cc1` [compound 8], the “FN-induced ERK1/2 phosphorylation” value in the test on ERK1/2 was “significantly prevented”. Moreover, the half-maximal inhibitory concentration (IC50) was 0.054 µM against α4β1 integrin [1] and greater than 5 µM at αMβ2 integrin. In addition, the “FN-induced JNK phosphorylation” value with JNK is reported as “able to significantly prevent”. On α4β1 integrin [2], the affinity corresponds to a Ki of 0.0019 ± 0.0008 µM. In addition, the “FN-induced AKT phosphorylation” value in the test on AKT is on record as “significantly prevented”.
Consider `Cc1ccccc1NC(=O)Nc1ccc(CNC(=O)C[C@@H](C)NC(=O)CC(=O)O)cc1` [compound 13], for which, in the test with ERK1/2, the “FN-induced ERK1/2 phosphorylation” value is “significantly prevented”. For the same compound, the half-maximal inhibitory concentration (IC50) at α4β1 integrin [1] was found to be 0.879 µM. Also, the “FN-induced JNK phosphorylation” value with JNK is reported as “did not counteract”. Also, a half-maximal effect at αMβ2 integrin (agonist = increased number of adherent cells) (EC50) was put at 0.285 µM. Further, the affinity at α4β1 integrin [2] corresponds to a Ki of 0.0167 ± 0.0052 µM. In addition, the “FN-induced AKT phosphorylation” value in the test with AKT is “significantly prevented”.
